Several values for one entry are separate records, joined by “and”; a condition that tells them apart may be missing. Equal values may be shown once.
Tested on: KRAS-mutant PDC complex spheroid viability
Assay: Anticancer human tumor 186277-243-T-J2-PDC patient-derived colon adenocarcinoma cell line growth inhibition [KRAS2]
Conditions: for viability, T/C: stronger effect = lower value
In short: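 Combination screen of spheroid viability in tumor-cell co-cultures with endothelial (HUVEC) and mesenchymal stem cell stroma. Each agent was tested in half-log dilutions, topping at clinical Cmax or at 10 microM without a known Cmax.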

[1] = curve of first compound, second compound 0.1 µM
[2] = curve of first compound, second compound 0.316 µM
[3] = curve of first compound, second compound 1 µM
[4] = curve of first compound, second compound 3.16 µM
[5] = curve of first compound, second compound 10 µM
[6] = second compound 0.1 µM, first compound 0.00316 µM
[7] = second compound 0.1 µM, first compound 0.01 µM
[8] = second compound 0.1 µM, first compound 0.0316 µM
[9] = second compound 0.1 µM, first compound 0.1 µM
[10] = second compound 0.1 µM, first compound 0.316 µM
[11] = second compound 0.1 µM, first compound 1 µM
[12] = second compound 0.316 µM, first compound 0.00316 µM
[13] = second compound 0.316 µM, first compound 0.01 µM
[14] = second compound 0.316 µM, first compound 0.0316 µM
[15] = second compound 0.316 µM, first compound 0.1 µM
[16] = second compound 0.316 µM, first compound 0.316 µM
[17] = second compound 0.316 µM, first compound 1 µM
[18] = second compound 1 µM, first compound 0.00316 µM
[19] = second compound 1 µM, first compound 0.01 µM
[20] = second compound 1 µM, first compound 0.0316 µM
[21] = second compound 1 µM, first compound 0.1 µM
[22] = second compound 1 µM, first compound 0.316 µM
[23] = second compound 1 µM, first compound 1 µM
[24] = second compound 3.16 µM, first compound 0.00316 µM
[25] = second compound 3.16 µM, first compound 0.01 µM
[26] = second compound 3.16 µM, first compound 0.0316 µM
[27] = second compound 3.16 µM, first compound 0.1 µM
[28] = second compound 3.16 µM, first compound 0.316 µM
[29] = second compound 3.16 µM, first compound 1 µM
[30] = second compound 10 µM, first compound 0.00316 µM
[31] = second compound 10 µM, first compound 0.01 µM
[32] = second compound 10 µM, first compound 0.0316 µM
[33] = second compound 10 µM, first compound 0.1 µM
[34] = second compound 10 µM, first compound 0.316 µM
[35] = second compound 10 µM, first compound 1 µM
[36] = second compound 0.1 µM, first compound 3.16 µM
[37] = second compound 0.1 µM, first compound 10 µM
[38] = second compound 0.316 µM, first compound 3.16 µM
[39] = second compound 0.316 µM, first compound 10 µM
[40] = second compound 1 µM, first compound 3.16 µM
[41] = second compound 1 µM, first compound 10 µM
[42] = second compound 3.16 µM, first compound 3.16 µM
[43] = second compound 3.16 µM, first compound 10 µM
[44] = second compound 10 µM, first compound 3.16 µM
[45] = second compound 10 µM, first compound 10 µM
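Wherever viability, T/C is given: viability read after seven days of compound exposure; 100% = DMSO vehicle-treated spheroids so lower means less viable.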

Compound	IC50 [1] [µM]	IC50 [2] [µM]	IC50 [3] [µM]	IC50 [4] [µM]	IC50 [5] [µM]	viability, T/C [8] [%]	viability, T/C [9] [%]	viability, T/C [10] [%]	viability, T/C [11] [%]	viability, T/C [14] [%]	viability, T/C [15] [%]	viability, T/C [16] [%]	viability, T/C [17] [%]	viability, T/C [20] [%]	viability, T/C [21] [%]	viability, T/C [22] [%]	viability, T/C [26] [%]	viability, T/C [27] [%]	viability, T/C [32] [%]	viability, T/C [33] [%]	also measured
CCN1CCN(Cc2ccc(Nc3ncc(F)c(-c4cc(F)c5nc(C)n(C(C)C)c5c4)n3)nc2)CC1 + COc1cc2nc(C)nc(NC(C)c3cc(N)cc(C(F)(F)F)c3)c2cc1OC1CCOC1	> 1	> 1	> 1	0.714	0.064	118	165	173	69.4	130	163	146	58	115	157	123	138	157	100	18.2	viability, T/C [6]: 97.9%; viability, T/C [7]: 93.2%; viability, T/C [12]: 101%; viability, T/C [13]: 93.6%; viability, T/C [18]: 96%; viability, T/C [19]: 109%; viability, T/C [23]: 50.9%; viability, T/C [24]: 91.9%; viability, T/C [25]: 98.1%; viability, T/C [28]: 108%; viability, T/C [29]: 26.4%; viability, T/C [30]: 103%; viability, T/C [31]: 104%; viability, T/C [34]: 4.89%; viability, T/C [35]: 0.61%
O=C(c1cc(Cc2n[nH]c(=O)c3ccccc23)ccc1F)N1CCN(C(=O)C2CC2)CC1 + CNCc1ccccc1-c1csc(C(C)Nc2nc(C)nc3cc(OC)c(OC)cc23)c1	6.45	6.16	5.69	0.639	< 0.0316	110	101	95.6	114	107	102	111	106	104	97.2	108	94.8	107	0.19	0.21	viability, T/C [36]: 78.6%; viability, T/C [37]: 32.4%; viability, T/C [38]: 73.8%; viability, T/C [39]: 32.7%; viability, T/C [23]: 104%; viability, T/C [40]: 66.9%; viability, T/C [41]: 33.8%; viability, T/C [28]: 94.1%; viability, T/C [29]: 16.2%; viability, T/C [42]: 45.6%; viability, T/C [43]: 3.95%; viability, T/C [34]: 0.19%; viability, T/C [35]: 0.14%; viability, T/C [44]: 0.14%; viability, T/C [45]: 0.19%
CN(C)C/C=C/C(=O)Nc1cc2c(Nc3ccc(F)c(Cl)c3)ncnc2cc1O[C@H]1CCOC1																					viability, T/C (compound 0.000316 µM): 101% [middle of 5 runs]; viability, T/C (compound 0.00316 µM): 101% [middle of 5 runs]; viability, T/C (compound 0.01 µM): 108% [middle of 5 runs]; viability, T/C (compound 0.0316 µM): 120% (3×) and 114% and 105%; viability, T/C (compound 0.1 µM): 111% [middle of 5 runs]; IC50 (curve of compound): > 0.1 µM
CC(C)n1nc(-c2ccc3oc(N)nc3c2)c2c(N)ncnc21 + CC1OCC2(CCN(c3cnc(Sc4ccnc(N)c4Cl)c(N)n3)CC2)C1N	0.0119	0.0127	0.0087	0.00498	0.00126	30	16.1			30.6	15.3			25.3	12.9		22.6	7.43	13.8	5.7	viability, T/C (second compound 0.1 µM, first compound 0.000316 µM): 107%; viability, T/C (second compound 0.1 µM, first compound 0.001 µM): 101%; viability, T/C [6]: 85.8%; viability, T/C [7]: 52.1%; viability, T/C (second compound 0.316 µM, first compound 0.000316 µM): 113%; viability, T/C (second compound 0.316 µM, first compound 0.001 µM): 100%; viability, T/C [12]: 76.8%; viability, T/C [13]: 57%; viability, T/C (second compound 1 µM, first compound 0.000316 µM): 103%; viability, T/C (second compound 1 µM, first compound 0.001 µM): 89.7%; viability, T/C [18]: 67.5%; viability, T/C [19]: 49.9%; viability, T/C (second compound 3.16 µM, first compound 0.000316 µM): 83.8%; viability, T/C (second compound 3.16 µM, first compound 0.001 µM): 73.4%; viability, T/C [24]: 55.9%; viability, T/C [25]: 39.5%; viability, T/C (second compound 10 µM, first compound 0.000316 µM): 57.4%; viability, T/C (second compound 10 µM, first compound 0.001 µM): 58.8%; viability, T/C [30]: 33.7%; viability, T/C [31]: 25.3%
CC(=O)Nc1cccc(-n2c(=O)n(C3CC3)c(=O)c3c(Nc4ccc(I)cc4F)n(C)c(=O)c(C)c32)c1																					viability, T/C (compound 0.0001 µM): 102% [middle of 5 runs]; viability, T/C (compound 0.001 µM): 21.2% [middle of 5 runs]; viability, T/C (compound 0.00316 µM): 9.7% [middle of 5 runs]; viability, T/C (compound 0.01 µM): 4.01% [middle of 5 runs]; viability, T/C (compound 0.0316 µM): 1.43% [middle of 5 runs]; IC50 (curve of compound): 0.622 nM [middle of 5 runs]
CCNC(=O)CC1N=C(c2ccc(Cl)cc2)c2cc(OC)ccc2-n2c(C)nnc21 (configuration not stated) + COc1cc2nc(C)nc(NC(C)c3cc(N)cc(C(F)(F)F)c3)c2cc1OC1CCOC1	1.91	1.31	1.16	0.751	0.229	100	103	139	84.7	102	89.2	124	57.1	93.4	108	123	84.8	110	90.5	90.9	viability, T/C [36]: 26.7%; viability, T/C [37]: 18.8%; viability, T/C [38]: 28.9%; viability, T/C [39]: 24.5%; viability, T/C [23]: 55%; viability, T/C [40]: 24.3%; viability, T/C [41]: 6.44%; viability, T/C [28]: 107%; viability, T/C [29]: 33.3%; viability, T/C [42]: 13.5%; viability, T/C [43]: 14.2%; viability, T/C [34]: 34.2%; viability, T/C [35]: 2.69%; viability, T/C [44]: 0.68%; viability, T/C [45]: 0.42%
CC1OCC2(CCN(c3cnc(Sc4ccnc(N)c4Cl)c(N)n3)CC2)C1N (configuration not stated) + COc1cc2nc(C)nc(NC(C)c3cc(N)cc(C(F)(F)F)c3)c2cc1OC1CCOC1	> 10	> 10	> 10	> 10	1.52	103	96.1	104	108	106	104	93.9	100	99.9	101	103	98.9	87.6	93.6	96.7	viability, T/C [36]: 109%; viability, T/C [37]: 112%; viability, T/C [38]: 115%; viability, T/C [39]: 98.1%; viability, T/C [23]: 104%; viability, T/C [40]: 114%; viability, T/C [41]: 85.4%; viability, T/C [28]: 96.7%; viability, T/C [29]: 114%; viability, T/C [42]: 111%; viability, T/C [43]: 78.8%; viability, T/C [34]: 93.5%; viability, T/C [35]: 50.5%; viability, T/C [44]: 39%; viability, T/C [45]: 9.31%

Source: PubChem BioAssay AID1963875 (Molecular Pharmacology Branch, DTP, NCI, 2024)
